Values of other authors in patent US20090270335A1, “COLLYRIUM FOR DRY EYE” (AQUEOUS PHARMA LIMITED, priority 2006, published 2009).

Test system: tear secretion
Details: topical application
[1] = both in dry eye patients and people not suffering from dry eye

For `CC[C@H](C)[C@H](NC(=O)[C@H](Cc1ccccc1)NC(=O)[C@H](C)NC(=O)[C@H](CC(=O)O)NC(=O)[C@H](CCCCN)NC(=O)[C@H](CO)NC(=O)[C@@H]1CCCN1C(=O)[C@@H]1CCC(=O)N1)C(=O)NCC(=O)N[C@@H](CC(C)C)C(=O)N[C@@H](CCSC)C(N)=O` [eledoisin, Glu-Pro-Ser-Lys-Asp-Ala-Phe-Ile-Gly-Leu-Met-NH2], the tear secretion rate [1] is listed as “increase”, the tear volume [1] is listed as “increase” and the “side effect: chemosis” value (patients) is listed as “not pronounced”. The “side effect: hyperemia of the conjunctiva” value (patients) was “observed initially in some patients”.
